Patent US9302999B2, “Substituted triazoles as herbicides” (E. I. DU PONT DE NEMOURS AND COMPANY, priority 2012, dated 2016)

How the values were obtained:
Type in all cases: in vivo
[1] = system: barnyardgrass (Echinochloa crus-galli); assay: Test A pre-/postemergence: barnyardgrass; conditions: for Barnyardgrass plant response rating: visual rating on 0 to 100 scale (0 no effect, 100 complete control), approximately ten days
Method in brief: (§1)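 Seeds were sown in loam/sand blend and sprayed preemergence (directed soil spray) and, simultaneously, postemergence at 2–10 cm, one- to two-leaf stage, using compounds in non-phytotoxic solvent with surfactant. After ~10 days in greenhouse, injury was rated visually versus untreated controls, 0 (no effect) to 100 (complete control).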

[2] = system: crabgrass, large (large crabgrass, Digitaria sanguinalis); assay: Test A pre-/postemergence: crabgrass, large; conditions: for Crabgrass, Large plant response rating: visual rating on 0 to 100 scale (0 no effect, 100 complete control), approximately ten days
Method in brief: as §1

[3] = system: foxtail, giant (giant foxtail, Setaria faberii); assay: Test A pre-/postemergence: foxtail, giant; conditions: for Foxtail, Giant plant response rating: visual rating on 0 to 100 scale (0 no effect, 100 complete control), approximately ten days
Method in brief: as §1

[4] = system: morningglory (Ipomoea spp.); assay: Test A pre-/postemergence: morningglory; conditions: for Morningglory plant response rating: visual rating on 0 to 100 scale (0 no effect, 100 complete control), approximately ten days
Method in brief: as §1

[5] = system: pigweed (Amaranthus retroflexus); assay: Test A pre-/postemergence: pigweed; conditions: for Pigweed plant response rating: visual rating on 0 to 100 scale (0 no effect, 100 complete control), approximately ten days
Method in brief: as §1

[6] = system: velvetleaf (Abutilon theophrasti); assay: Test A pre-/postemergence: velvetleaf; conditions: for Velvetleaf plant response rating: visual rating on 0 to 100 scale (0 no effect, 100 complete control), approximately ten days
Method in brief: as §1

[7] = system: wheat (Triticum aestivum); assay: Test A pre-/postemergence: wheat; conditions: for Wheat plant response rating: visual rating on 0 to 100 scale (0 no effect, 100 complete control), approximately ten days
Method in brief: as §1

corn (Zea mays) = assay: Test A pre-/postemergence: corn; conditions: for Corn plant response rating: visual rating on 0 to 100 scale (0 no effect, 100 complete control), approximately ten days
Method in brief: as §1

rice (Oryza sativa) = assay: Test B flooded paddy: rice; conditions: Flood, applied to paddy water at 2-leaf stage, visually evaluated after 13 to 15 days
Method in brief: (§2)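 Visual ratings on a 0–100 scale, where 0 means no effect and 100 means complete control, were assigned by comparison with controls 13 to 15 days after treatment. Compounds went into paddy water over 2-leaf plants flooded to 3 cm.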

[8] = system: sedge, umbrella (small-flower umbrella sedge Cyperus difformis); assay: Test B flooded paddy: sedge, umbrella; conditions: Flood, applied to paddy water at 2-leaf stage, visually evaluated after 13 to 15 days
Method in brief: as §2

[9] = system: ducksalad (Heteranthera limosa); assay: Test B flooded paddy: ducksalad; conditions: Flood, applied to paddy water at 2-leaf stage, visually evaluated after 13 to 15 days
Method in brief: as §2

[10] = system: barnyardgrass (Echinochloa crus-galli); assay: Test B flooded paddy: barnyardgrass; conditions: Flood, applied to paddy water at 2-leaf stage, visually evaluated after 13 to 15 days
Method in brief: as §2

[11] = Postemergence, 125 g ai/ha, 0 to 100 scale, 0 is no effect, 100 is complete control
[12] = Preemergence, 125 g ai/ha, 0 to 100 scale where 0 is no effect and 100 is complete control
[13] = Preemergence, 500 g ai/ha, 0 to 100 scale (0 no effect, 100 complete control)

SMILES | Plant response rating, Barnyardgrass [1, 11] | Barnyardgrass plant response rating ([1]; Postemergence, 500 g ai/ha) | Plant response rating, Barnyardgrass [1, 12] | Plant response rating, Barnyardgrass [1, 13] | Plant response rating, Crabgrass, Large [2, 11] | Crabgrass, Large plant response rating ([2]; Postemergence, 500 g ai/ha) | Plant response rating, Crabgrass, Large [2, 12] | Plant response rating, Crabgrass, Large [2, 13] | Plant response rating, Foxtail, Giant [3, 11] | Foxtail, Giant plant response rating ([3]; Postemergence, 500 g ai/ha) | Plant response rating, Foxtail, Giant [3, 12] | Plant response rating, Foxtail, Giant [3, 13] | Plant response rating, Morningglory [4, 11] | Morningglory plant response rating ([4]; Postemergence, 500 g ai/ha) | Plant response rating, Morningglory [4, 12] | Plant response rating, Morningglory [4, 13] | Plant response rating, Pigweed [5, 11] | Pigweed plant response rating ([5]; Postemergence, 500 g ai/ha) | Plant response rating, Pigweed [5, 12] | Plant response rating, Pigweed [5, 13] | also measured
CC(C)c1nn(-c2ccc(F)cc2)nc1Cc1ccnc(C(F)(F)F)c1 [Compound 151] | 10 | 20 | 0 | 0 | 10 | 30 | 0 | 10 | 10 | 30 | 0 | 20 | 40 | 70 | 0 | 0 | 60 | 80 | 10 | 60 | Plant response rating, Velvetleaf [6, 11]: 30; Velvetleaf plant response rating ([6]; Postemergence, 500 g ai/ha): 50; Plant response rating, Velvetleaf [6, 12]: 0; Plant response rating, Velvetleaf [6, 13]: 0; Plant response rating, Wheat [7, 11]: 0; Wheat plant response rating ([7]; Postemergence, 500 g ai/ha): 0; Plant response rating, Wheat [7, 12]: 0; Plant response rating, Wheat [7, 13]: 0; Plant response rating, Corn (corn (Zea mays); [11]): 10; Corn plant response rating (corn (Zea mays); Postemergence, 500 g ai/ha): 20; Plant response rating, Corn (corn (Zea mays); [12]): 0; Plant response rating, Corn (corn (Zea mays); [13]): 0; Plant response rating, Rice (0 to 100 scale, 0 is no effect, 100 is complete control) (rice (Oryza sativa); 250 g ai/ha): 30; Plant response rating, Sedge, Umbrella (0 to 100 scale, 0 is no effect, 100 is complete control) ([8]; 250 g ai/ha): 0; Plant response rating, Ducksalad (0 to 100 scale, 0 is no effect, 100 is complete control) ([9]; 250 g ai/ha): 0; Plant response rating, Barnyardgrass (0 to 100 scale, 0 is no effect, 100 is complete control) ([10]; 250 g ai/ha): 0
O=C(c1ccnc(C(F)(F)F)c1)c1nn(-c2ccc(F)cc2)nc1F [Compound 158] | 0 | 0 | 0 | 0 | 0 | 20 | 0 | 0 | 0 | 0 | 0 | 0 | 0 | 10 | 0 | 0 | 10 | 80 | 0 | 0 | Plant response rating, Velvetleaf [6, 11]: 0; Velvetleaf plant response rating ([6]; Postemergence, 500 g ai/ha): 0; Plant response rating, Velvetleaf [6, 12]: 0; Plant response rating, Velvetleaf [6, 13]: 0; Plant response rating, Wheat [7, 11]: 0; Wheat plant response rating ([7]; Postemergence, 500 g ai/ha): 0; Plant response rating, Wheat [7, 12]: 0; Plant response rating, Wheat [7, 13]: 0; Plant response rating, Corn (corn (Zea mays); [11]): 0; Corn plant response rating (corn (Zea mays); Postemergence, 500 g ai/ha): 20; Plant response rating, Corn (corn (Zea mays); [12]): 0; Plant response rating, Corn (corn (Zea mays); [13]): 0; Plant response rating, Rice (0 to 100 scale, 0 is no effect, 100 is complete control) (rice (Oryza sativa); 250 g ai/ha): 75; Plant response rating, Sedge, Umbrella (0 to 100 scale, 0 is no effect, 100 is complete control) ([8]; 250 g ai/ha): 0; Plant response rating, Ducksalad (0 to 100 scale, 0 is no effect, 100 is complete control) ([9]; 250 g ai/ha): 0; Plant response rating, Barnyardgrass (0 to 100 scale, 0 is no effect, 100 is complete control) ([10]; 250 g ai/ha): 0
Fc1ccc(-n2nc(F)c(Cc3ccnc(C(F)(F)F)c3)n2)cc1 [Compound 159] | 50 | 80 | 10 | 80 | 20 | 40 | 10 | 30 | 40 | 90 | 40 | 90 | 60 | 90 | 0 | 0 | 90 | 100 | 70 | 90 | Plant response rating, Velvetleaf [6, 11]: 20; Velvetleaf plant response rating ([6]; Postemergence, 500 g ai/ha): 60; Plant response rating, Velvetleaf [6, 12]: 0; Plant response rating, Velvetleaf [6, 13]: 0; Plant response rating, Wheat [7, 11]: 0; Wheat plant response rating ([7]; Postemergence, 500 g ai/ha): 30; Plant response rating, Wheat [7, 12]: 0; Plant response rating, Wheat [7, 13]: 0; Plant response rating, Corn (corn (Zea mays); [11]): 20; Corn plant response rating (corn (Zea mays); Postemergence, 500 g ai/ha): 30; Plant response rating, Corn (corn (Zea mays); [12]): 0; Plant response rating, Corn (corn (Zea mays); [13]): 0; Plant response rating, Rice (0 to 100 scale, 0 is no effect, 100 is complete control) (rice (Oryza sativa); 250 g ai/ha): 30; Plant response rating, Sedge, Umbrella (0 to 100 scale, 0 is no effect, 100 is complete control) ([8]; 250 g ai/ha): 60; Plant response rating, Ducksalad (0 to 100 scale, 0 is no effect, 100 is complete control) ([9]; 250 g ai/ha): 20; Plant response rating, Barnyardgrass (0 to 100 scale, 0 is no effect, 100 is complete control) ([10]; 250 g ai/ha): 30
COCc1nn(-c2ccc(F)cc2)nc1Oc1ccnc(C(F)(F)F)c1 [Compound 161] | 30 | 70 | 20 | 60 | 70 | 90 | 100 | 100 | 60 | 90 | 100 | 100 | 30 | 50 | 10 | 10 | 100 | 100 | 100 | 100 | Plant response rating, Velvetleaf [6, 11]: 40; Velvetleaf plant response rating ([6]; Postemergence, 500 g ai/ha): 80; Plant response rating, Velvetleaf [6, 12]: 0; Plant response rating, Velvetleaf [6, 13]: 50; Plant response rating, Wheat [7, 11]: 10; Wheat plant response rating ([7]; Postemergence, 500 g ai/ha): 30; Plant response rating, Wheat [7, 12]: 0; Plant response rating, Wheat [7, 13]: 10; Plant response rating, Corn (corn (Zea mays); [11]): 10; Corn plant response rating (corn (Zea mays); Postemergence, 500 g ai/ha): 30; Plant response rating, Corn (corn (Zea mays); [12]): 10; Plant response rating, Corn (corn (Zea mays); [13]): 10; Plant response rating, Rice (0 to 100 scale, 0 is no effect, 100 is complete control) (rice (Oryza sativa); 125 g ai/ha): 20; Plant response rating, Sedge, Umbrella (0 to 100 scale, 0 is no effect, 100 is complete control) ([8]; 125 g ai/ha): 80; Plant response rating, Ducksalad (0 to 100 scale, 0 is no effect, 100 is complete control) ([9]; 125 g ai/ha): 0; Plant response rating, Barnyardgrass (0 to 100 scale, 0 is no effect, 100 is complete control) ([10]; 125 g ai/ha): 0
